Columns and labels:
[1] = system: DCs; test: Activation of DCs: cytokine secretion (TNF-α, IL-6, IL-12, IL-1β) by ELISA; type: cell-based, mouse
Procedure: (§1) The cells were then washed and cultured in Amphinex- and OVA-free medium for another 2 hours before being treated with Lumisource® light for 3 minutes. The DCs were then cultured overnight before collection of supernatants for analysis of the cytokines TNF-α (a), IL-6 (b), IL-12 (c) and IL-1β (d). To measure the expression of CD80 by flow cytometry, DCs were cultured with 0, 0.1 or 1 μg/ml Amphinex and 0 or 10 μg/ml OVA as indicated (e). The histograms are representative of triplicates and show cells that were gated on viable and CD11c-positive cells. Arrows indicate samples that were treated with light for 3 min.
(§2) The DC viability was tested 2 hours after the PCI treatment by staining the cells with propidium iodide and Annexin-V to identify necrotic and apoptotic cells, respectively, which were analysed by flow cytometry (FACSCanto from BD Biosciences, San Jose, USA). The analysis was performed using the FlowJo 8.5.2 software from Tree Star, Inc. (Ashland, Oreg.). Activation of DCs was further tested by measuring the secretion of TNF-α, IL-6, IL-12 and IL-1β by ELISA (eBioscience) and the expression of MHC I, MHC II, CD40, CD80, CD83 and CD86 by flow cytometry. Briefly, the DCs were incubated for 2 hours with Amphinex or lipopolysaccharide E. coli clone 026:B6 (Sigma Aldrich), washed, incubated for another 2 hours in fresh medium, illuminated for 3 min with Lumisource® light, and incubated. Cytokines were analysed by ELISA from supernatants of 24 hours cultures, and flow cytometry was done on cells after 48 hours incubation. All FACS antibodies were purchased from BD Pharmingen (Basel, Switzerland) or from eBioscience.
We further tested the activation of DCs and their innate immune reactions after PCI treatment. Adjuvants and especially pathogen-associated molecular patterns (PAMPs) typically activate DCs and other antigen presenting cells via stimulation of pathogen recognition receptors such as Toll-like receptors, NOD-like receptors, C-type lectin and mannose receptors. Such activation then is typically characterised by secretion cytokines important for stimulation and regulation of further innate as well as adoptive immune responses. […] Although weak, the adjuvant effect with regard to IL-6 seemed light dependent, as IL-6 secretion was not increased by Amphinex or light alone, but only by their combination. However, the effect was much weaker than after stimulation of DCs with 1 μg/ml lipopolysaccharide (LPS). While stimulation of TNF-α and IL-6 secretion characterises the general adjuvant potential of a compound or a treatment, stimulation of IL-12 and IL-1β illustrates the potential to trigger Th1 T-cell responses and inflammasome, respectively.

[2] = system: bone-marrow-derived murine DCs; test: In vitro MHC class-I antigen presentation: OVA-pulsed, Amphinex- and light-treated DCs co-cultured with OT-1 CD8 T cells, IFN-γ ELISA; type: cell-based, mouse
Procedure: The DCs were washed and illuminated for the indicated time intervals before adding 100,000 purified CD8 T cells from OT-1 mice. […] After washing, the DCs were illuminated for 15 seconds.
The antigen OVA (Sigma Aldrich, Buchs, Switzerland) and the photosensitiser Amphinex (TPCS2a, PCI Biotech, Lysaker, Norway) were incubated with DCs using petri dishes. Typically, DCs were pulsed for 2 h with OVA and Amphinex. The DCs were then collected and washed by centrifugation before re-suspension in medium and further incubation on petri dishes for 2 h in Amphinex- and OVA-free medium; this allows removal of Amphinex from the outer plasma membrane. The DCs were then washed, counted and plated in round-bottom 96-well plates (typically 100,000 DCs per well), and the cells were exposed to light (435 nm) using LumiSource® (PCI Biotech) for different time intervals. Sex-matched CD8-purified OT-1 cells were then added to the DC plates at 100,000 cells per well and incubated at 37° C. overnight. The secretion of IFN-γ into supernatants was measured using ELISA according to the protocol from eBioscience (Ready-SET-Go!®, Bender MedSystems, Vienna, Austria).
After removing the photosensitiser and antigen by washing and incubation for another 2 hours, the DCs were transferred to 96-well plates at 100,000 cells per well and treated with light at different time-doses before admixing an equal number of purified OT-1 CD8 T cells. […] Of note, antigen presentation and IFN-γ secretion of soluble OVA was improved by Amphinex alone, but not by light alone (FIG. 1a). To further test the sensitivity of DCs to PCI treatment, equivalent assays were performed using a single light dose of 15 seconds, but a wide range of Amphinex doses (0.0005-0.5 μg/ml), namely 0.003, 0.006, 0.0125, 0.025, 0.05, 0.1 and 0.2 μg/ml.

[3] = system: DCs; test: Activation of DCs: surface marker expression by flow cytometry; type: cell-based, mouse
Procedure: as §1, §2
DC constitutively expressed the co-stimulatory molecules CD80 and CD86 (FIG. 3e; CD80 only shown). […] The expression of CD40, MHC I and MHC II was not affected by Amphinex treatment (not shown).

[4] = system: Bone-marrow derived murine DCs; test: PCI-induced apoptosis and cell death of DCs, Annexin-V / propidium iodide flow cytometry; type: cell-based; details: 0.2 μg/ml Amphinex, 435 nm light 1 to 10 minutes, 2 hours rest at 37° C.
Procedure: The DCs were then washed and seeded into culture plates and treated with light for various time periods (minutes) as indicated. The cells were cultured for another 2 hours (or overnight) and the viability was analysed by flow cytometry after staining with Annexin-V and propidium iodide (PI). The results are illustrated as representative dotbiots (a) or summarised in histograms (b).
The DC viability was tested 2 hours after the PCI treatment by staining the cells with propidium iodide and Annexin-V to identify necrotic and apoptotic cells, respectively, which were analysed by flow cytometry (FACSCanto from BD Biosciences, San Jose, USA). The analysis was performed using the FlowJo 8.5.2 software from Tree Star, Inc. (Ashland, Oreg.). […] Cytokines were analysed by ELISA from supernatants of 24 hours cultures, and flow cytometry was done on cells after 48 hours incubation. […]
Therefore in a series of experiments, we analysed cell death and apoptosis by flow cytometry after staining of cells with propidium iodide and fluorescence-labelled anti-Annexin-V. A concentration of 0.2 μg/ml Amphinex induced light-dose dependent apoptosis and cell death upon illumination with 435 nm light for 1 to 10 minutes (FIG. 2a); the DCs were rested at 37° C. for 2 hours after light treatment before staining and acquisition. […]

[5] = PCI treatment: 1 μg/ml Amphinex plus 3 min light
[6] = PCI treatment: 1 μg/ml Amphinex plus 3 min light, measured after 22 hours incubation

Disulfonated tetraphenyl chlorin [Amphinex]
IL-6 secretion ([1]; Amphinex alone, without light): not increased
cytokine-stimulating (adjuvant) effect compared with 1 μg/ml lipopolysaccharide (LPS) ([1]; PCI treatment (Amphinex plus light) vs 1 μg/ml LPS): much weaker
IL-1β secretion [1, 5]: neither were notably stimulated
IL-12 secretion [1, 5]: neither were notably stimulated
IL-6 secretion [1, 6]: weak stimulation
TNF-α secretion [1, 6]: weak stimulation
immune responses (IFN-γ secretion), 0.05 μg/ml compared with 0.2 μg/ml Amphinex ([2]; 0.05 vs 0.2 μg/ml Amphinex): stronger immune responses
antigen presentation (IFN-γ secretion by OT-1 CD8 T cells) ([2]; Amphinex 0.025 and 0.05 μg/ml, light 15 seconds): facilitated antigen presentation
antigen presentation and IFN-γ secretion of soluble OVA ([2]; Amphinex alone, without light): improved
antigen presentation ([2]; Amphinex combined with high light doses): clear detrimental effect
IFN-γ secretion by OT-1 CD8 T cells ([2]; Amphinex doses higher than 0.05 μg/ml, light 15 seconds): declined
MHC-1 antigen presentation as measured by IFN-γ secretion ([2]; DCs pulsed 2 h with OVA with 0.05 or 0.2 μg/ml Amphinex vs OVA only, IFN-γ after 24 hours): significantly increased
CD40 expression ([3]; Amphinex treatment): not affected
MHC I expression ([3]; Amphinex treatment): not affected
MHC II expression ([3]; Amphinex treatment): not affected
CD80 expression ([3]; Amphinex-treated DCs also treated with light 3 min, with or without OVA, gated on viable CD11c-positive cells): down-regulation
amount of cells dying [4]: 50-60%
apoptotic cells [4]: approx. 20%

From patent US20160040128A1, “METHOD” (PCI BIOTECH AS, priority 2013, published 2016)
